Assay results taken from the supplement of paper PMC10307832.

Columns and labels:
Assay in all cases: relative viability (nuclei count vs DMSO), 5 days (fraction); higher = more cells survive
Zebularine + Crizotinib = compound: O=c1ncccn1[C@@H]1O[C@H](CO)[C@@H](O)[C@H]1O [Zebularine] + C[C@@H](Oc1cc(-c2cnn(C3CCNCC3)c2)cnc1N)c1c(Cl)ccc(F)c1Cl [Crizotinib] (partner 1 µM)
Method in brief: (§1)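 Lung cancer cell lines in 1536-well plates were dosed by pin tool the day after seeding, either with one drug alone or with a fixed anchor-drug dose plus five library-drug doses (not always all listed) in √10 steps. After 5 days, cells were fixed and their nuclei stained in one step (final 0.05% Triton X-100, 1% formaldehyde, 1 ug/ml Hoechst), then counted on 4× images. Relative viability is the nuclei count in treated wells divided by that in vehicle wells. Values are medians of duplicate plates.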

BI-D1870 + Tozasertib = compound: CC(C)CCN1c2nc(Nc3cc(F)c(O)c(F)c3)ncc2N(C)C(=O)C1C [BI-D1870] + Cc1cc(Nc2cc(N3CCN(C)CC3)nc(Sc3ccc(NC(=O)C4CC4)cc3)n2)n[nH]1 [Tozasertib] (partner 0.1 µM)
Method in brief: as §1

Zebularine + Pemetrexed = compound: O=c1ncccn1[C@@H]1O[C@H](CO)[C@@H](O)[C@H]1O [Zebularine] + Nc1nc2[nH]cc(CCc3ccc(C(=O)N[C@@H](CCC(=O)O)C(=O)O)cc3)c2c(=O)[nH]1 [Pemetrexed] (partner 0.2 µM)
Method in brief: as §1

Zebularine + Navitoclax = compound: O=c1ncccn1[C@@H]1O[C@H](CO)[C@@H](O)[C@H]1O [Zebularine] + CC1(C)CCC(c2ccc(Cl)cc2)=C(CN2CCN(c3ccc(C(=O)NS(=O)(=O)c4ccc(N[C@H](CCN5CCOCC5)CSc5ccccc5)c(S(=O)(=O)C(F)(F)F)c4)cc3)CC2)C1 [Navitoclax] (partner 0.5 µM)
Method in brief: as §1

| Cell Line | relative viability (Zebularine + Crizotinib; first compound 1 µM) | relative viability (Zebularine + Crizotinib; first compound 3.162 µM) | relative viability (Zebularine + Crizotinib; first compound 10 µM) | relative viability (Zebularine + Crizotinib; first compound 31.62 µM) | relative viability (Zebularine + Crizotinib; first compound 100 µM) | relative viability (BI-D1870 + Tozasertib; first compound 0.04 µM) | relative viability (BI-D1870 + Tozasertib; first compound 0.1265 µM) | relative viability (BI-D1870 + Tozasertib; first compound 0.4 µM) | relative viability (BI-D1870 + Tozasertib; first compound 1.265 µM) | relative viability (BI-D1870 + Tozasertib; first compound 4 µM) | relative viability (Zebularine + Pemetrexed; first compound 1 µM) | relative viability (Zebularine + Pemetrexed; first compound 3.162 µM) | relative viability (Zebularine + Pemetrexed; first compound 10 µM) | relative viability (Zebularine + Pemetrexed; first compound 31.62 µM) | relative viability (Zebularine + Pemetrexed; first compound 100 µM) | relative viability (Zebularine + Navitoclax; first compound 1 µM) | relative viability (Zebularine + Navitoclax; first compound 3.162 µM) | relative viability (Zebularine + Navitoclax; first compound 10 µM) | relative viability (Zebularine + Navitoclax; first compound 31.62 µM) | relative viability (Zebularine + Navitoclax; first compound 100 µM) |
| --- | --- | --- | --- | --- | --- | --- | --- | --- | --- | --- | --- | --- | --- | --- | --- | --- | --- | --- | --- | --- |
| HCC-44 | 0.808 | 0.798 | 0.698 | 0.656 | 0.166 | 1.29 | 0.89 | 0.855 | 0.602 | 0.404 | 0.723 | 0.625 | 0.646 | 0.679 | 0.445 | 0.965 | 0.943 | 0.669 | 0.973 | 0.248 |
| HCC-827 | 1.07 | 0.907 | 0.785 | 0.647 | 0.339 | 0.421 | 0.401 | 0.377 | 0.396 | 0.369 | 0.328 | 0.254 | 0.229 | 0.243 | 0.235 | 0.98 | 0.986 | 0.968 | 0.714 | 0.418 |
| NCI-H1623 | – | – | – | – | – | 0.404 | 0.412 | 0.478 | 0.452 | 0.376 | – | – | – | – | – | – | – | – | – | – |
| NCI-H2347 | 0.682 | 0.676 | 0.618 | 0.516 | 0.381 | 0.635 | 0.501 | 0.595 | 0.516 | 0.335 | 0.459 | 0.466 | 0.402 | 0.361 | 0.335 | 0.836 | 0.81 | 0.563 | 0.475 | 0.369 |
| PC-14 | 1.01 | 0.81 | 0.271 | 0.141 | 0.122 | 0.62 | 0.561 | 0.55 | 0.659 | 0.367 | 0.136 | 0.139 | 0.0749 | 0.0697 | 0.0552 | 1.07 | 1.06 | 0.346 | 0.113 | 0.129 |
| NCI-H1651 | 0.919 | 0.893 | 0.604 | 0.745 | 0.514 | 0.9 | 0.487 | 0.784 | 0.647 | 0.344 | 0.631 | 0.556 | 0.542 | 0.563 | 0.347 | 1.22 | 1.03 | – | 0.971 | 0.506 |
| HARA | 1.17 | 1.11 | – | 1.17 | 0.834 | 0.129 | 0.101 | 0.128 | 0.139 | 0.0974 | 0.295 | 0.253 | 0.214 | 0.324 | 0.307 | 1.14 | 1.13 | – | 1.1 | 0.718 |
| NCI-H1650 | 1.04 | 0.788 | – | 1.13 | 0.86 | 0.53 | 0.347 | 0.401 | 0.323 | 0.252 | 0.381 | 0.35 | 0.387 | 0.523 | 0.33 | 1.06 | 1.06 | – | 1.21 | 0.704 |
| NCI-H1395 | – | – | – | – | – | 0.818 | 0.685 | 0.718 | 0.72 | 0.721 | 1.05 | 0.787 | 0.661 | 0.749 | 0.489 | 0.99 | 1.37 | 0.919 | 0.629 | 0.473 |
| LU99A | 0.683 | 0.531 | 0.383 | 0.255 | 0.153 | 0.274 | 0.253 | 0.273 | 0.316 | 0.25 | 0.182 | 0.236 | 0.162 | 0.134 | 0.146 | 0.827 | 0.635 | 0.596 | 0.408 | 0.166 |
| NCI-H1355 | 1.12 | 0.966 | 0.87 | 0.404 | 0.315 | 0.598 | 0.528 | 0.498 | 0.374 | 0.384 | 1.04 | 1.02 | 0.802 | 0.623 | 0.303 | 0.955 | 0.894 | 0.898 | 0.456 | 0.306 |
| HCC-78 | 0.336 | 0.335 | 0.298 | 0.359 | 0.252 | 0.455 | 0.355 | 0.392 | 0.39 | 0.293 | 0.88 | 0.941 | – | 0.882 | 0.978 | 0.811 | 0.775 | 0.592 | 0.497 | 0.22 |
| NCI-H1563 | 0.877 | 0.873 | 0.849 | 0.935 | 0.828 | – | – | – | – | – | 0.896 | 0.717 | 0.689 | 0.728 | 0.791 | – | – | – | – | – |
| HCC-15 | 1.02 | 0.761 | 0.586 | 0.769 | 0.219 | 0.523 | 0.347 | 0.33 | 0.333 | 0.185 | 0.23 | 0.213 | 0.201 | 0.219 | 0.186 | 0.775 | 0.72 | 0.507 | 0.781 | 0.469 |
| EKVX | 1.11 | 0.87 | – | 0.896 | 1.11 | 0.433 | 0.379 | 0.378 | 0.287 | 0.206 | 0.396 | 0.431 | – | 0.433 | 0.397 | 1.03 | 0.755 | – | 0.947 | 1.03 |
| NCI-H2087 | 1.07 | 0.803 | 0.551 | 0.654 | 0.197 | 0.217 | 0.212 | 0.203 | 0.215 | 0.142 | 0.722 | 0.667 | 0.511 | 0.548 | 0.216 | 1.16 | 0.885 | 0.488 | 0.767 | 0.37 |
| LK-2 | 0.217 | 0.236 | 0.266 | 0.209 | 0.23 | 0.146 | 0.175 | 0.172 | 0.175 | 0.148 | 0.321 | 0.298 | 0.173 | 0.253 | 0.131 | 0.759 | 0.946 | 0.588 | 0.787 | 0.417 |
| NCI-H1437 | 1.09 | 0.987 | – | 0.902 | 0.31 | 0.432 | 0.382 | 0.377 | 0.387 | 0.363 | 0.322 | 0.335 | 0.276 | 0.295 | 0.275 | 1.23 | 1.16 | – | 0.99 | 0.364 |
